Laboratory results taken from PubChem BioAssay AID256 (DTP/NCI, 2004).
“And” between values parts separate entries of the source, which are not always exact repeats. Identical values can stand only once. Toxic doses and inconclusive results are not listed.

Test system: CD2F1 mice, L1210 leukemia ip, survival T/C
Experiment: NCI In Vivo Anticancer Drug Screen. Data for tumor model L1210 Leukemia (intraperitoneal) in CD2F1 (CDF1) mice
Conditions: higher = longer survival
Outline: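 Transplantable tumor in mice; compound-treated vs vehicle-treated groups. Read-out = treated/control ratio of the measured endpoint.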

[1] = endpoint: mean survival time, dose: 100.0 mg/kg/injection, schedule: Q04DX003 (ip), vehicle: saline with Tween-80
[2] = endpoint: mean survival time, dose: 200.0 mg/kg/injection, schedule: Q04DX003 (ip), vehicle: saline with Tween-80
[3] = endpoint: mean survival time, dose: 400.0 mg/kg/injection, schedule: Q04DX003 (ip), vehicle: saline with Tween-80
[4] = endpoint: mean survival time, dose: 100.0 mg/kg/injection, schedule: Q01DX009 (ip), vehicle: saline with Tween-80
[5] = endpoint: mean survival time, dose: 200.0 mg/kg/injection, schedule: Q01DX009 (ip), vehicle: saline with Tween-80
[6] = endpoint: mean survival time, dose: 400.0 mg/kg/injection, schedule: Q01DX009 (ip), vehicle: saline with Tween-80
[7] = endpoint: median survival time, dose: 50.0 mg/kg/injection, schedule: Q01DX009 (ip), vehicle: saline with Tween-80
[8] = endpoint: median survival time, dose: 100.0 mg/kg/injection, schedule: Q01DX009 (ip), vehicle: saline with Tween-80
[9] = endpoint: median survival time, dose: 200.0 mg/kg/injection, schedule: Q01DX009 (ip), vehicle: saline with Tween-80
[10] = endpoint: mean survival time, dose: 25.0 mg/kg/injection, schedule: Q04DX003 (ip), vehicle: saline with Tween-80
[11] = endpoint: mean survival time, dose: 50.0 mg/kg/injection, schedule: Q04DX003 (ip), vehicle: saline with Tween-80

## CCN(C(=O)Nc1cccc2ccccc12)c1ccccc1
[1]
  T/C: 104 % of control
[2]
  T/C: 101 % of control
[3]
  T/C: 109 % of control

## CC1(OO)CC(=O)OO1 (stereo unspecified)
endpoint: mean survival time, dose: 5.0 mg/kg/injection, schedule: Q01DX001 (ip), vehicle: saline
  T/C: 90 % of control
endpoint: mean survival time, dose: 10.0 mg/kg/injection, schedule: Q01DX001 (ip), vehicle: saline
  T/C: 95 % of control
endpoint: mean survival time, dose: 20.0 mg/kg/injection, schedule: Q01DX001 (ip), vehicle: saline
  T/C: 92 % of control

## CC(=O)OCC1OC(n2ccc(=O)[nH]c2=O)CC1N=[N+]=[N-] (stereo unspecified)
endpoint: median survival time, dose: 12.5 mg/kg/injection, schedule: Q01DX005 (ip), vehicle: saline with Tween-80
  T/C: 104 % of control
endpoint: median survival time, dose: 25.0 mg/kg/injection, schedule: Q01DX005 (ip), vehicle: saline with Tween-80
  T/C: 107 % of control
endpoint: median survival time, dose: 50.0 mg/kg/injection, schedule: Q01DX005 (ip), vehicle: saline with Tween-80
  T/C: 104 % of control
endpoint: median survival time, dose: 100.0 mg/kg/injection, schedule: Q01DX005 (ip), vehicle: saline with Tween-80
  T/C: 101 % of control
endpoint: median survival time, dose: 200.0 mg/kg/injection, schedule: Q01DX005 (ip), vehicle: saline with Tween-80
  T/C: 106 % of control

## CC(=O)NNC(=O)c1ccccc1
endpoint: mean survival time, dose: 50.0 mg/kg/injection, schedule: Q01DX009 (ip), vehicle: other
  T/C: 95 % of control and 105 % of control
endpoint: mean survival time, dose: 100.0 mg/kg/injection, schedule: Q01DX009 (ip), vehicle: other
  T/C: 97 % of control and 108 % of control
endpoint: mean survival time, dose: 200.0 mg/kg/injection, schedule: Q01DX009 (ip), vehicle: other
  T/C: 93 % of control and 97 % of control
endpoint: mean survival time, dose: 300.0 mg/kg/injection, schedule: Q01DX009 (ip), vehicle: other
  T/C: 90 % of control

## CCOC(=O)N1C(=O)c2ccccc2C1=O
[4]
  T/C: 93 % of control
[5]
  T/C: 93 % of control
[6]
  T/C: 100 % of control

## CCOC(=O)C1=C(C)O/C(=C/c2cccc(Cl)c2)C1=O
[7]
  T/C: 107 % of control
[8]
  T/C: 110 % of control
[9]
  T/C: 112 % of control

## Cc1nc2ccc(Cl)cc2c(=O)o1
[4]
  T/C: 103 % of control
[1]
  T/C: 96 % of control
[5]
  T/C: 103 % of control
[2]
  T/C: 93 % of control
[6]
  T/C: 96 % of control
[3]
  T/C: 93 % of control

## COCCN=C(N)C(N)=NCCOC
endpoint: mean survival time, dose: 100.0 mg/kg/injection, schedule: Q01DX009 (ip), vehicle: saline
  T/C: 105 % of control
endpoint: mean survival time, dose: 200.0 mg/kg/injection, schedule: Q01DX009 (ip), vehicle: saline
  T/C: 103 % of control
endpoint: mean survival time, dose: 400.0 mg/kg/injection, schedule: Q01DX009 (ip), vehicle: saline
  T/C: 102 % of control

## O=C(Oc1ccccc1)c1cc(O)c(O)c(O)c1
endpoint: median survival time, dose: 25.0 mg/kg/injection, schedule: Q01DX009 (ip), vehicle: saline with Tween-80
  T/C: 101 % of control
[7]
  T/C: 98 % of control
[8]
  T/C: 105 % of control
[9]
  T/C: 112 % of control

## Cc1nc(N)[nH]c(=O)c1NC(=O)c1ccc(N=[N+]=[N-])cc1
endpoint: mean survival time, dose: 12.5 mg/kg/injection, schedule: Q01DX001 (ip), vehicle: saline with Tween-80
  T/C: 90 % of control
endpoint: mean survival time, dose: 12.5 mg/kg/injection, schedule: Q01DX009 (ip), vehicle: saline with Tween-80
  T/C: 89 % of control
endpoint: mean survival time, dose: 12.5 mg/kg/injection, schedule: Q04DX003 (ip), vehicle: saline with Tween-80
  T/C: 97 % of control
endpoint: mean survival time, dose: 25.0 mg/kg/injection, schedule: Q01DX001 (ip), vehicle: saline with Tween-80
  T/C: 95 % of control
endpoint: mean survival time, dose: 25.0 mg/kg/injection, schedule: Q01DX009 (ip), vehicle: saline with Tween-80
  T/C: 94 % of control
[10]
  T/C: 97 % of control
endpoint: mean survival time, dose: 50.0 mg/kg/injection, schedule: Q01DX001 (ip), vehicle: saline with Tween-80
  T/C: 94 % of control
endpoint: mean survival time, dose: 50.0 mg/kg/injection, schedule: Q01DX009 (ip), vehicle: saline with Tween-80
  T/C: 91 % of control
[11]
  T/C: 96 % of control

## Cc1ccccc1NC(=O)Oc1c(C)cccc1C
endpoint: mean survival time, dose: 100.0 mg/kg/injection, schedule: Q04DX002 (ip), vehicle: saline with Tween-80
  T/C: 97 % of control
endpoint: mean survival time, dose: 200.0 mg/kg/injection, schedule: Q04DX002 (ip), vehicle: saline with Tween-80
  T/C: 101 % of control
endpoint: mean survival time, dose: 400.0 mg/kg/injection, schedule: Q04DX002 (ip), vehicle: saline with Tween-80
  T/C: 101 % of control

## Nc1ccnn1CCO
endpoint: mean survival time, dose: 100.0 mg/kg/injection, schedule: Q04DX003 (ip), vehicle: water
  T/C: 102 % of control
endpoint: mean survival time, dose: 200.0 mg/kg/injection, schedule: Q04DX003 (ip), vehicle: water
  T/C: 101 % of control
endpoint: mean survival time, dose: 400.0 mg/kg/injection, schedule: Q04DX003 (ip), vehicle: water
  T/C: 101 % of control

## COC12[C@@H]3N[C@@H]3CN1C1=C(C(=O)C(NCCSSCCNC3=C(C)C(=O)C4=C(C3=O)C(COC(N)=O)[C@]3(OC)C5N[C@@H]5CN43)=C(C)C1=O)[C@@H]2COC(N)=O (stereo partly specified)
endpoint: mean survival time, dose: 1.5 mg/kg/injection, schedule: Q01DX001 (ip), vehicle: distilled water + Tween-80
  T/C: 109 % of control
endpoint: mean survival time, dose: 1.5 mg/kg/injection, schedule: Q01DX001 (ip), vehicle: water
  T/C: 110 % of control
endpoint: mean survival time, dose: 3.0 mg/kg/injection, schedule: Q01DX001 (ip), vehicle: water
  T/C: 121 % of control
endpoint: mean survival time, dose: 6.0 mg/kg/injection, schedule: Q01DX001 (ip), vehicle: water
  T/C: 122 % of control
endpoint: mean survival time, dose: 12.0 mg/kg/injection, schedule: Q01DX001 (ip), vehicle: distilled water + Tween-80
  T/C: 162 % of control
endpoint: mean survival time, dose: 12.0 mg/kg/injection, schedule: Q01DX001 (ip), vehicle: water
  T/C: 151 % of control
endpoint: mean survival time, dose: 24.0 mg/kg/injection, schedule: Q01DX001 (ip), vehicle: water
  T/C: 104 % of control
endpoint: median survival time, dose: 0.05 mg/kg/injection, schedule: Q01DX009 (ip), vehicle: other
  T/C: 108 % of control
endpoint: median survival time, dose: 0.1 mg/kg/injection, schedule: Q01DX009 (ip), vehicle: other
  T/C: 119 % of control
endpoint: median survival time, dose: 0.2 mg/kg/injection, schedule: Q01DX009 (ip), vehicle: other
  T/C: 119 % of control
endpoint: median survival time, dose: 0.2 mg/kg/injection, schedule: Q04DX003 (ip), vehicle: other
  T/C: 104 % of control
endpoint: median survival time, dose: 0.4 mg/kg/injection, schedule: Q01DX001 (ip), vehicle: other
  T/C: 119 % of control
endpoint: median survival time, dose: 0.4 mg/kg/injection, schedule: Q04DX003 (ip), vehicle: other
  T/C: 110 % of control
endpoint: median survival time, dose: 0.8 mg/kg/injection, schedule: Q01DX001 (ip), vehicle: other
  T/C: 116 % of control
endpoint: median survival time, dose: 0.8 mg/kg/injection, schedule: Q04DX003 (ip), vehicle: other
  T/C: 124 % of control
endpoint: median survival time, dose: 1.6 mg/kg/injection, schedule: Q03DX003 (ip), vehicle: other
  T/C: 151 % of control
endpoint: median survival time, dose: 3.2 mg/kg/injection, schedule: Q01DX009 (ip), vehicle: other
  T/C: 161 % of control
endpoint: median survival time, dose: 3.2 mg/kg/injection, schedule: Q03DX003 (ip), vehicle: other
  T/C: 154 % of control and 176 % of control
endpoint: median survival time, dose: 3.2 mg/kg/injection, schedule: Q04DX003 (ip), vehicle: other
  T/C: 165 % of control
endpoint: median survival time, dose: 6.4 mg/kg/injection, schedule: Q01DX009 (ip), vehicle: other
  T/C: 124 % of control
endpoint: median survival time, dose: 6.4 mg/kg/injection, schedule: Q03DX003 (ip), vehicle: other
  T/C: 173 % of control and 187 % of control
endpoint: median survival time, dose: 6.4 mg/kg/injection, schedule: Q04DX003 (ip), vehicle: other
  T/C: 178 % of control
endpoint: median survival time, dose: 9.6 mg/kg/injection, schedule: Q01DX001 (ip), vehicle: other
  T/C: 168 % of control
endpoint: median survival time, dose: 9.6 mg/kg/injection, schedule: Q03DX003 (ip), vehicle: other
  T/C: 154 % of control
endpoint: median survival time, dose: 9.6 mg/kg/injection, schedule: Q04DX003 (ip), vehicle: other
  T/C: 169 % of control
endpoint: median survival time, dose: 19.2 mg/kg/injection, schedule: Q01DX001 (ip), vehicle: other
  T/C: 160 % of control

## c1ccc(CCc2ccccn2)nc1
[10]
  T/C: 105 % of control
[11]
  T/C: 100 % of control
[1]
  T/C: 91 % of control and 103 % of control

## COc1ccc(C(=O)/C=C/c2ccc3cc(OC)c(OC)cc3c2)cc1OC
endpoint: mean survival time, dose: 25.0 mg/kg/injection, schedule: Q01DX009 (ip), vehicle: water
  T/C: 98 % of control
endpoint: mean survival time, dose: 50.0 mg/kg/injection, schedule: Q01DX009 (ip), vehicle: water
  T/C: 102 % of control

## O=[N+]([O-])c1ccc2c(ccn2C2OCC(O)C(O)C2O)c1 (stereo unspecified)
endpoint: mean survival time, dose: 450.0 mg/kg/injection, schedule: Q01DX009 (ip), vehicle: saline with Tween-80
  T/C: 101 % of control
